Among the data in ChEMBL document CHEMBL1697692, “Developing structure-activity relationships for the prediction of hepatotoxicity” (Chem Res Toxicol, 2010) are Hepatotoxicity values, retold here.

The subject of this data set is Hepatotoxicity. Put plainly: Literature-mined public compounds from Greene et al multi-species hepatotoxicity modelling dataset.

The structures appear in SMILES notation.

Take `CN(C)CCCN1c2ccccc2CCc2ccccc21.Cl` [IMIPRAMINE HYDROCHLORIDE]: the Hepatotoxicity entry is recorded as “HH: Evidence of human hepatotoxicity”.
The entry for `Nc1cc(-c2ccncc2)c[nH]c1=O` [INAMRINONE] is “HH: Evidence of human hepatotoxicity”; for `CC1(c2ccccc2)Cc2cc(OCC(=O)O)c(Cl)c(Cl)c2C1=O` (stereo not given) [INDACRINONE] it is “HH: Evidence of human hepatotoxicity”; for `COc1ccc2c(c1)c(CC(=O)O)c(C)n2C(=O)c1ccc(Cl)cc1` [INDOMETHACIN] it is “HH: Evidence of human hepatotoxicity”.
The result for `O[C@H]1[C@H](O)[C@@H](O)[C@H](O)[C@@H](O)[C@H]1O` [INOSITOL] reads “NE: No evidence of hepatotoxicity in any species”; that for `C[C@H](O)C(=O)Nc1c(I)c(C(=O)NC(CO)CO)c(I)c(C(=O)NC(CO)CO)c1I` [IOPAMIDOL], “HH: Evidence of human hepatotoxicity”; that for `CC(C)NNC(=O)c1ccncc1` [IPRONIAZID], “HH: Evidence of human hepatotoxicity”.
The result for `CCCCC1=NC2(CCCC2)C(=O)N1Cc1ccc(-c2ccccc2-c2nnn[nH]2)cc1` [IRBESARTAN] reads “WE: Weak evidence (<10 case reports) of human hepatotoxicity”; that for `Cc1cc(C(=O)NNCc2ccccc2)no1` [ISOCARBOXAZID], “WE: Weak evidence (<10 case reports) of human hepatotoxicity”.
As for `NNC(=O)c1ccncc1` [ISONIAZID], the Hepatotoxicity result is given as “HH: Evidence of human hepatotoxicity”.
The result for `O=C(O)c1ccncc1` [ISONICOTINIC ACID] reads “NE: No evidence of hepatotoxicity in any species”.
On to `CC(C)NCC(O)c1ccc(O)c(O)c1.Cl` (stereo not given) [ISOPROTERENOL HYDROCHLORIDE], for which the Hepatotoxicity entry is “NE: No evidence of hepatotoxicity in any species”.
Turning to `O=[N+]([O-])O[C@H]1CO[C@H]2[C@@H]1OC[C@H]2O[N+](=O)[O-]` [ISOSORBIDE DINITRATE], the Hepatotoxicity result is “NE: No evidence of hepatotoxicity in any species”.
The result for `CC1=C(/C=C/C(C)=C/C=C/C(C)=C\C(=O)O)C(C)(C)CCC1` [ISOTRETINOIN] reads “HH: Evidence of human hepatotoxicity”.
For `Cc1cc(NC(=O)C2=C(O)c3ccccc3S(=O)(=O)N2C)no1` [ISOXICAM], the Hepatotoxicity entry is “NE: No evidence of hepatotoxicity in any species”.
The result for `CC(COc1ccccc1)NC(C)C(O)c1ccc(O)cc1.Cl` (stereo not given) [ISOXSUPRINE HYDROCHLORIDE] reads “NE: No evidence of hepatotoxicity in any species”; that for `CC(=O)N1CCN(c2ccc(OCC3COC(Cn4ccnc4)(c4ccc(Cl)cc4Cl)O3)cc2)CC1` (stereo not given) [KETOCONAZOLE], “HH: Evidence of human hepatotoxicity”; that for `CC(C(=O)O)c1cccc(C(=O)c2ccccc2)c1` (stereo not given) [KETOPROFEN], “NE: No evidence of hepatotoxicity in any species”.
The result for `NC(CO)(CO)CO.O=C(c1ccccc1)c1ccc2n1CCC2C(=O)O` (stereo not given) [KETOROLAC TROMETHAMINE] reads “HH: Evidence of human hepatotoxicity”; that for `CN1CCC(=C2c3ccccc3CC(=O)c3sccc32)CC1` [KETOTIFEN], “NE: No evidence of hepatotoxicity in any species”; that for `CC(CCc1ccccc1)NCC(O)c1ccc(O)c(C(N)=O)c1` (stereo not given) [LABETALOL], “HH: Evidence of human hepatotoxicity”.
The entry for `Nc1ccn([C@@H]2CS[C@H](CO)O2)c(=O)n1` [LAMIVUDINE] is “WE: Weak evidence (<10 case reports) of human hepatotoxicity”; for `Cc1oncc1C(=O)Nc1ccc(C(F)(F)F)cc1` [LEFLUNOMIDE] it is “HH: Evidence of human hepatotoxicity”; for `Nc1nc(=O)c2c([nH]1)NCC(CNc1ccc(C(=O)N[C@@H](CCC(=O)[O-])C(=O)[O-])cc1)N2C=O.[Ca+2]` (stereo not given in full) [LEUCOVORIN CALCIUM] it is “NE: No evidence of hepatotoxicity in any species”.
For the compound `N[C@@H](Cc1ccc(O)c(O)c1)C(=O)O` [LEVODOPA], the Hepatotoxicity result is recorded as “NE: No evidence of hepatotoxicity in any species”.
The result for `C[C@H]1COc2c(N3CCN(C)CC3)c(F)cc3c(=O)c(C(=O)O)cn1c23.C[C@H]1COc2c(N3CCN(C)CC3)c(F)cc3c(=O)c(C(=O)O)cn1c23.O` [LEVOFLOXACIN] reads “WE: Weak evidence (<10 case reports) of human hepatotoxicity”; that for `CCN(CC)CC(=O)Nc1c(C)cccc1C` [LIDOCAINE], “NE: No evidence of hepatotoxicity in any species”.
Regarding `N[C@@H](Cc1cc(I)c(Oc2ccc(O)c(I)c2)c(I)c1)C(=O)O` [LIOTHYRONINE], the Hepatotoxicity entry is on record as “NE: No evidence of hepatotoxicity in any species”.
The result for `NCCCC[C@H](N[C@@H](CCc1ccccc1)C(=O)O)C(=O)N1CCC[C@H]1C(=O)O` [LISINOPRIL ANHYDROUS] reads “HH: Evidence of human hepatotoxicity”.
The entry for `C[C@H](CCC(=O)O)[C@H]1CC[C@H]2[C@@H]3CC[C@@H]4C[C@H](O)CC[C@]4(C)[C@H]3CC[C@]12C` [LITHOCHOLIC ACID] is “AH: Evidence for animal hepatotoxicity but not tested in humans”.
Take `CN(C)C(=O)C(CCN1CCC(O)(c2ccc(Cl)cc2)CC1)(c1ccccc1)c1ccccc1.Cl` [LOPERAMIDE HYDROCHLORIDE]: the Hepatotoxicity result was “NE: No evidence of hepatotoxicity in any species”.
The result for `N[C@@H](C(=O)N[C@@H]1C(=O)N2C(C(=O)O)=C(Cl)CC[C@H]12)c1ccccc1` [LORACARBEF ANHYDROUS] reads “NE: No evidence of hepatotoxicity in any species”; that for `CCCCc1nc(Cl)c(CO)n1Cc1ccc(-c2ccccc2-c2nn[nH]n2)cc1` [LOSARTAN], “HH: Evidence of human hepatotoxicity”.
The result for `O=C(O)/C=C\C(=O)O` [MALEIC ACID] reads “AH: Evidence for animal hepatotoxicity but not tested in humans”; that for `CNCCCC12CCC(c3ccccc31)c1ccccc12` [MAPROTILINE], “WE: Weak evidence (<10 case reports) of human hepatotoxicity”; that for `COC(=O)Nc1nc2ccc(C(=O)c3ccccc3)cc2[nH]1` [MEBENDAZOLE], “HH: Evidence of human hepatotoxicity”.
On to `Cc1ccc(Cl)c(Nc2ccccc2C(=O)[O-])c1Cl.O.[Na+]` [MECLOFENAMATE SODIUM], for which the Hepatotoxicity entry was “HH: Evidence of human hepatotoxicity”.
The entry for `CC(=O)O[C@]1(C(C)=O)CC[C@H]2[C@@H]3C[C@H](C)C4=CC(=O)CC[C@]4(C)[C@H]3CC[C@@]21C` [MEDROXYPROGESTERONE ACETATE] is “WE: Weak evidence (<10 case reports) of human hepatotoxicity”; for `Cc1cccc(Nc2ccccc2C(=O)O)c1C` [MEFENAMIC ACID] it is “HH: Evidence of human hepatotoxicity”; for `COc1ccc2[nH]cc(CCNC(C)=O)c2c1` [MELATONIN] it is “NE: No evidence of hepatotoxicity in any species”.
The result for `CC12CC3CC(C)(C1)CC(N)(C3)C2` [MEMANTINE] reads “NE: No evidence of hepatotoxicity in any species”.
The result for `CC1=CC(=O)c2ccccc2C1=O` [MENADIONE] reads “AH: Evidence for animal hepatotoxicity but not tested in humans”; that for `CCC1(c2ccccc2)C(=O)NC(=O)N(C)C1=O` (stereo not given) [MEPHOBARBITAL], “HH: Evidence of human hepatotoxicity”.
With `CCCC(C)(COC(N)=O)COC(N)=O` [MEPROBAMATE], the Hepatotoxicity entry is given as “HH: Evidence of human hepatotoxicity”.
The entry for `Sc1ncnc2nc[nH]c12` [MERCAPTOPURINE ANHYDROUS] is “HH: Evidence of human hepatotoxicity”.
As to `CN1CCCCC1CCN1c2ccccc2Sc2ccc([S+](C)[O-])cc21.O=S(=O)(O)c1ccccc1` (stereo not given) [MESORIDAZINE BESYLATE], the Hepatotoxicity result is given as “HH: Evidence of human hepatotoxicity”.
The entry for `C#C[C@]1(O)CC[C@H]2[C@@H]3CCc4cc(OC)ccc4[C@H]3CC[C@@]21C` [MESTRANOL] is “HH: Evidence of human hepatotoxicity”.
Turning to `CC(=O)Nc1cccc(O)c1` [METACETAMOL], the Hepatotoxicity result was “WE: Weak evidence (<10 case reports) of human hepatotoxicity”.
The entry for `CC(C)NCC(O)c1cc(O)cc(O)c1.CC(C)NCC(O)c1cc(O)cc(O)c1.O=S(=O)(O)O` (stereo not given) [METAPROTERENOL SULFATE] is “HH: Evidence of human hepatotoxicity”; for `CN(C)C(=N)N=C(N)N` [METFORMIN] it is “WE: Weak evidence (<10 case reports) of human hepatotoxicity”; for `C=C1c2cccc(O)c2C(=O)C2=C(O)[C@]3(O)C(=O)C(C(N)=O)=C(O)[C@@H](N(C)C)[C@@H]3[C@@H](O)[C@H]12.Cl` [METHACYCLINE HYDROCHLORIDE] it is “HH: Evidence of human hepatotoxicity”.
The entry for `CN(Cc1cnc2nc(N)nc(N)c2n1)c1ccc(C(=O)N[C@@H](CCC(=O)O)C(=O)O)cc1` [METHOTREXATE] is “HH: Evidence of human hepatotoxicity”; for `COc1ccc(OC)c(C(O)C(C)N)c1.Cl` (stereo not given) [METHOXAMINE HYDROCHLORIDE] it is “NE: No evidence of hepatotoxicity in any species”.
The result for `COCC(=O)O` [METHOXYACETIC ACID] reads “AH: Evidence for animal hepatotoxicity but not tested in humans”; that for `C[C@](N)(Cc1ccc(O)c(O)c1)C(=O)O` [METHYLDOPA], “HH: Evidence of human hepatotoxicity”; that for `CC[C@@H](CO)NC(=O)[C@@H]1C=C2c3cccc4[nH]cc(c34)C[C@H]2N(C)C1.O=C(O)/C=C\C(=O)O` [METHYLERGONOVINE MALEATE], “NE: No evidence of hepatotoxicity in any species”.
Regarding `COC(=O)C(c1ccccc1)C1CCCCN1` (stereo not given) [METHYLPHENIDATE], the Hepatotoxicity result is listed as “HH: Evidence of human hepatotoxicity”.
The entry for `CC[C@@H](CO)NC(=O)[C@@H]1C=C2c3cccc4c3c(cn4C)C[C@H]2N(C)C1.O=C(O)/C=C\C(=O)O` [METHYSERGIDE MALEATE] is “NE: No evidence of hepatotoxicity in any species”.
For `Cc1ccccc1N1C(=O)c2cc(S(N)(=O)=O)c(Cl)cc2NC1C` (stereo not given) [METOLAZONE], the Hepatotoxicity entry is on record as “HH: Evidence of human hepatotoxicity”.
The result for `Cc1ncc([N+](=O)[O-])n1CCO` [METRONIDAZOLE] reads “HH: Evidence of human hepatotoxicity”.
